Experimental data taken from PMC6556873, “Rapid Covalent-Probe Discovery by Electrophile-Fragment Screening” (Journal of the American Chemical Society, 2019).
Like-named read-outs stand apart in the source and are kept apart here.

Legend:
[1] = molecular target: T1, NNMT (hNNMT) (Homo sapiens, UniProt P40261); parameters: Intact protein LC/MS covalent labelling, fragments in pools of five, 200 uM each, 4 °C; conditions: 24 h, 4 °C, pool of five; 200 µM; covalent
T1 construct: wild type, N-terminal His6 tag kept (no cleavage described), E. coli, construct 31248 Da
T1 sequence (P40261 1-264): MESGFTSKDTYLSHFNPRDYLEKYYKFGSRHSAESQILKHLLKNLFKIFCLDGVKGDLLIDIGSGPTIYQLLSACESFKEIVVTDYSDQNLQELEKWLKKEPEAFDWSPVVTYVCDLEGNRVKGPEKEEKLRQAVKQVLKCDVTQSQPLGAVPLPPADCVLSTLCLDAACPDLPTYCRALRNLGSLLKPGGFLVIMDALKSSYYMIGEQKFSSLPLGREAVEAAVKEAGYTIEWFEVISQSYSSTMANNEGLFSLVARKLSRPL

[2] = molecular target: T2, BSA (Bos taurus, UniProt P02769); parameters: Intact protein LC/MS covalent labelling, fragments in pools of five, 200 uM each, 4 °C; conditions: 24 h, 4 °C, pool of five; 200 µM; covalent
T2 construct: gene ALB
T2 sequence (P02769 whole entry, the tested form may be a part): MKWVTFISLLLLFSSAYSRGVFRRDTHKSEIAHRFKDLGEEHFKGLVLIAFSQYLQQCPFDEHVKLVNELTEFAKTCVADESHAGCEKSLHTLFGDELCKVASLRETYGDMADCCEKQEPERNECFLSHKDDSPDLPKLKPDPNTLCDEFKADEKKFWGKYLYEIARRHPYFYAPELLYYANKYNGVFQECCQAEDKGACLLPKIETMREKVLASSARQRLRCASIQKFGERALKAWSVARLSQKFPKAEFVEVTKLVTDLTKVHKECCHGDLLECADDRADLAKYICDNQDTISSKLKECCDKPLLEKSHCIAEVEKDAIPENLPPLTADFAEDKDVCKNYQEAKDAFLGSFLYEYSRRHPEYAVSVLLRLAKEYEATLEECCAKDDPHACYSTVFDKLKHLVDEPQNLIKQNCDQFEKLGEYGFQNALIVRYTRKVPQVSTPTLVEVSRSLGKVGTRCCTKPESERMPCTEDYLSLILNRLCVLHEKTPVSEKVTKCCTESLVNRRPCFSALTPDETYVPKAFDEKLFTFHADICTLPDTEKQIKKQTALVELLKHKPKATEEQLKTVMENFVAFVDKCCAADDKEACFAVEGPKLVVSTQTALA

[3] = molecular target: T3, NUDT7 (Homo sapiens, UniProt P0C024); parameters: Intact protein LC/MS covalent labelling, fragments in pools of five, 200 uM each, 4 °C; conditions: 24 h, 4 °C, pool of five; 200 µM; covalent
T3 construct: residues 14-235, E. coli, pNIC28-Bsa4, N-terminal His6 tag removed by TEV, construct 26672 Da
T3 sequence (P0C024 14-235): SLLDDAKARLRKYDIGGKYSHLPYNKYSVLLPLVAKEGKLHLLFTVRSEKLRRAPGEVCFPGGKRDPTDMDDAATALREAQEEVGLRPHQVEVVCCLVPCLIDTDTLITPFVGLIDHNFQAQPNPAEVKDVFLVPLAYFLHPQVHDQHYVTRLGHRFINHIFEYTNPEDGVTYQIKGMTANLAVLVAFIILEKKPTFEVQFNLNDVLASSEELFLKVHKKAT

[4] = molecular target: T4, PCAF (Homo sapiens, UniProt Q92831); parameters: Intact protein LC/MS covalent labelling, fragments in pools of five, 200 uM each, 4 °C; conditions: 24 h, 4 °C, pool of five; 200 µM; covalent
T4 construct: gene KAT2B
T4 sequence (Q92831 whole entry, the tested form may be a part): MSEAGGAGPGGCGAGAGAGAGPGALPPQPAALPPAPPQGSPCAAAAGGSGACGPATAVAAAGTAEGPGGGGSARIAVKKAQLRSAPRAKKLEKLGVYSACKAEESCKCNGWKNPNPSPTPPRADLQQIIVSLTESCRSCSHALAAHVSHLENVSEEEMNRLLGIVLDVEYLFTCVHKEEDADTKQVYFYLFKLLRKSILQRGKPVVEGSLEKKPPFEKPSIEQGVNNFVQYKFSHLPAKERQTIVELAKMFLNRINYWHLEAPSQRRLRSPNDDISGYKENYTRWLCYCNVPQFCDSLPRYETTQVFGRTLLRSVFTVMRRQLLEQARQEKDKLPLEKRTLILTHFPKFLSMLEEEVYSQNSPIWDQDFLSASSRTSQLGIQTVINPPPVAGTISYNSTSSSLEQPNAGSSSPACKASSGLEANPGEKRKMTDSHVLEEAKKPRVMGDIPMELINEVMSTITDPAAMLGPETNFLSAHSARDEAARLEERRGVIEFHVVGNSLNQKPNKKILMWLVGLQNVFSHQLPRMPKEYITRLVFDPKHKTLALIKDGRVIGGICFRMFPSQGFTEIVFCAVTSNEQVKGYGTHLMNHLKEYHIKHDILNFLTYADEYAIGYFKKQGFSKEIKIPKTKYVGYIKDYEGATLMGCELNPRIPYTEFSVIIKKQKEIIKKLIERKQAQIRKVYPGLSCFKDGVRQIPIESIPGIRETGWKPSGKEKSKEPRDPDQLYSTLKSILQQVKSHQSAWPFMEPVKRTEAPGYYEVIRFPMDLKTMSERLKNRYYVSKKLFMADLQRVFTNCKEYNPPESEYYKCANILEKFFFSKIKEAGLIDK

[5] = molecular target: T5, OTUB2 (OTUB2A) (Homo sapiens, UniProt Q96DC9); parameters: Intact protein LC/MS covalent labelling, fragments in pools of five, 200 uM each, 4 °C; conditions: 24 h, 4 °C, pool of five; 200 µM; covalent
T5 construct: full length residues 1-234, E. coli BL21(DE3)-R3, His tag removed by TEV, construct 27312 Da
T5 sequence (Q96DC9 1-234): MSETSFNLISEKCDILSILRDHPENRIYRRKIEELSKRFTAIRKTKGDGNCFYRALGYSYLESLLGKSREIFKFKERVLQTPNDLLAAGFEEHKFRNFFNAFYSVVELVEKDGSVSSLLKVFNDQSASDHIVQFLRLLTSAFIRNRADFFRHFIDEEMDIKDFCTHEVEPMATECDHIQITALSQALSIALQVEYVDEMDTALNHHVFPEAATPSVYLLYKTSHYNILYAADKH

[6] = in vitro; parameters: species or system HB2, CCD841; conditions: human, hek293 cells
[7] = in vitro; parameters: species or system CCD841, HEK293; conditions: human, hb2 cells, read-out: HB-2 Cells Viability (%)
[8] = in vitro; parameters: species or system HB2, HEK293; conditions: human, ccd841 cells

Row | Compound | NNMT [1] | BSA [2] | NUDT7 [3] | PCAF [4] | OTUB2 [5] | viability at 48 h, 10 µM [6] [%] | viability at 48 h, 10 µM [7] [%] | viability at 48 h, 10 µM [8] [%]
1 | C=CC(=O)N1CCC2C(CCCN2Cc2ccccc2)C1 (stereo not drawn) [PCM-0102673] | 0 | 0 | 0 | 0 | 0 | 85 | 102 | 116
2 | C=CC(=O)N1CCCCC1c1cnn(C)c1 (stereo not drawn) [PCM-0102675] | 0 | 0 | 0.1 | 0 | 0 | 88.5 | 95.7 | 103
3 | C=CC(=O)N1CCCC1C(=O)Nc1nc2ccccc2s1 (stereo not drawn) [PCM-0102681] | 0 | 0 | 0 | 0 | 0 | 79.7 | 95.7 | 115
4 | C=CC(=O)N1CCN(C(=O)CN2C(=O)CCC2=O)CC1 [PCM-0102684] | 0 | 0 | 0.08 | 0 | 0 | 105 | 99.9 | 103
5 | C=CC(=O)N1CC=C(C(F)(F)F)CC1 [PCM-0102685] | 0.17 | 0 | 0 | 0 | 0 | 98 | 103 | 105
6 | C=CC(=O)N1CC(c2ccccc2)C2COCCC21 (stereo not drawn) [PCM-0102687] | 0 | 0 | 0 | 0 | 0 | 114 | 103 | 105
7 | Cc1ccc(Cn2ccsc2=NC(=O)CCl)cc1 [PCM-0102708] | 0 | 0 | 0.09 | 0 | 0 | 7.9 | 36 | 3
8 | CN(CCC#N)C(=O)CCl [PCM-0102712] | 0.32 | 0 | 0 | 0 | 0 | 80.3 | 89.4 | 79.6
9 | C=CC(=O)N1CC(=O)NC2CCCCC21 (stereo not drawn) [PCM-0102717] | 0 | 0 | 0 | 0 | 0 | 112 | 100 | 105
10 | C=CC(=O)N1Cc2ccc(S(=O)(=O)N(C)C)cc2C1 [PCM-0102718] | 0 | 0.3 | 0 | 0 | 0 | 73.6 | 97.4 | 99.7
11 | C=CC(=O)NCC1(O)CCCC(C(F)(F)F)C1 (stereo not drawn) [PCM-0102720] | 0 | 0 | 0 | 0 | 0.08 | 106 | 93.2 | 107
12 | C=CC(=O)N1CCCC(Oc2ncccc2F)C1 (stereo not drawn) [PCM-0102725] | 0.13 | 0 | 0 | 0 | 0.07 | 80.3 | 108 | 109
13 | C=CC(=O)N1CC(OC(=O)NC(C)C)C1 [PCM-0102728] | 0 | 0 | 0 | 0 | 0.18 | 110 | 99.7 | 108
14 | C=CC(=O)N1CCCn2c(cc3ccccc32)C1 [PCM-0102730] | 0 | 0 | 0 | 0 | 0.18 | 85 | 104 | 92.2
15 | C=CC(=O)NC1CCN(c2ccccc2C(F)(F)F)C1 (stereo not drawn) [PCM-0102731] | 0 | 0 | 0 | 0 | 0 | 69.7 | 100 | 104
16 | C=CC(=O)N1CCc2ccccc21 [PCM-0102732] | 0.22 | 0 | 0 | 0 | 0 | 72.5 | 93.4 | 105
17 | CN(CC(=O)N1CCOCC1)C(=O)CCl [PCM-0102743] | 0 | 0 | 0 | 0 | 0 | 97.6 | 101 | 99

Second part, led by results:

Row | NNMT [1] | BSA [2] | NUDT7 [3] | PCAF [4] | OTUB2 [5] | Compound | viability at 48 h, 10 µM [6] [%] | viability at 48 h, 10 µM [7] [%] | viability at 48 h, 10 µM [8] [%]
18 | 0.22 | 0 | 0.12 | 0 | 0.14 | O=C(CCl)Nc1ccc2c(c1)CCC2 [PCM-0102662] | 4.7 | 16.3 | 56.2
19 | 0 | 0 | 0 | 0 | 0 | CC1CCC2(CC1)NC(=O)N(NC(=O)CCl)C2=O (stereo not drawn) [PCM-0102666] | 99.9 | 97.3 | 79.9
20 | 0.32 | 0 | 0.06 | 0 | 0 | C=CC(=O)N(C)Cc1c(C)nc2sc(C)cn12 [PCM-0102679] | 83.2 | 103 | 108
21 | 0.12 | 0 | 0.15 | 0 | 0 | C=CC(=O)Nc1cc(CC(C)(C)C)nn1C [PCM-0102686] | 75.3 | 102 | 144
22 | 0.76 | 0 | 0 | 0 | 0 | O=C(CCl)NC(=O)NC1CCCCC1 [PCM-0102692] | 62.3 | 48.7 | 70.7
23 | 0.13 | 0 | 0.13 | 0 | 0 | Cc1ccccc1CN(C)C(=O)CCl [PCM-0102707] | 11.6 | 7.9 | 57
24 | 0 | 0 | 0 | 0 | 0 | CN(CC1CC1)C(=O)CCl [PCM-0102714] | 88.3 | 97 | 84.8
25 | 0.13 | 0 | 0 | 0 | 0 | CC(C)(C)c1nnc(NC(=O)CCl)s1 [PCM-0102736] | 81.5 | 80.1 | 67.5
26 | 0 | 0 | 0 | 0 | 0.54 | Cc1cccc(C(=O)NNC(=O)CCl)c1 [PCM-0102737] | 83.7 | 82.1 | 80
27 | 0.17 | 0 | 0 | 0 | 0.1 | Cc1ccc(S(N)(=O)=O)cc1NC(=O)CCl [PCM-0102744] | 19.7 | 54.4 | 61.4
